Measurements reported in ChEMBL document CHEMBL3526017, “Predicting the drug interaction potential of AMG 853, a dual antagonist of the D-prostanoid and chemoattractant receptor-homologous molecule expressed on T helper 2 cells receptors” (Drug Metab Dispos, 2012).

What was measured:
Cytochrome P450 3A7 [1] = molecular target: T1, Cytochrome P450 3A7 (Homo sapiens, UniProt P24462); experiment: Drug metabolism assessed as recombinant CYP3A7 (unknown origin)-mediated compound formation treated with AMG 853 at 10 uM after 30 mins by LC-MS/MS analysis; type: ADME; conditions: recombinant enzyme, 0.5 h
T1 sequence (P24462 whole entry): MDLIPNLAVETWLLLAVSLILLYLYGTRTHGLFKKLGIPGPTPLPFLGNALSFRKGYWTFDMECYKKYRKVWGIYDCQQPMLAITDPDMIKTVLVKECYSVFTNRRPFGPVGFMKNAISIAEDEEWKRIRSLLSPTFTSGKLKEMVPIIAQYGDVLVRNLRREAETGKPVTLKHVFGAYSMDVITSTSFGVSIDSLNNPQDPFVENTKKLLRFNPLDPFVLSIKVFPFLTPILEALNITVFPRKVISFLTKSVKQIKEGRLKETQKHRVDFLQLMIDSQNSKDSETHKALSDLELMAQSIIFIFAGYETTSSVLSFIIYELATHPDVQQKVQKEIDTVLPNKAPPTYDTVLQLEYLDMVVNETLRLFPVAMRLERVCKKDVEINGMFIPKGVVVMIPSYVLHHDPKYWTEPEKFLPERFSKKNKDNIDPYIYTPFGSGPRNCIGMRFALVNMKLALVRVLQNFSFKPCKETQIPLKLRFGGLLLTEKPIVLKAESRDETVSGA

Cytochrome P450 3A5 [2] = molecular target: T2, Cytochrome P450 3A5 (Homo sapiens, UniProt P20815); experiment: Drug metabolism assessed as recombinant CYP3A5 (unknown origin)-mediated compound formation measured per nmol protein treated with AMG 853 after 15 mins by LC-MS/MS analysis; type: ADME; conditions: recombinant enzyme, 0.25 h
T2 sequence (P20815 whole entry): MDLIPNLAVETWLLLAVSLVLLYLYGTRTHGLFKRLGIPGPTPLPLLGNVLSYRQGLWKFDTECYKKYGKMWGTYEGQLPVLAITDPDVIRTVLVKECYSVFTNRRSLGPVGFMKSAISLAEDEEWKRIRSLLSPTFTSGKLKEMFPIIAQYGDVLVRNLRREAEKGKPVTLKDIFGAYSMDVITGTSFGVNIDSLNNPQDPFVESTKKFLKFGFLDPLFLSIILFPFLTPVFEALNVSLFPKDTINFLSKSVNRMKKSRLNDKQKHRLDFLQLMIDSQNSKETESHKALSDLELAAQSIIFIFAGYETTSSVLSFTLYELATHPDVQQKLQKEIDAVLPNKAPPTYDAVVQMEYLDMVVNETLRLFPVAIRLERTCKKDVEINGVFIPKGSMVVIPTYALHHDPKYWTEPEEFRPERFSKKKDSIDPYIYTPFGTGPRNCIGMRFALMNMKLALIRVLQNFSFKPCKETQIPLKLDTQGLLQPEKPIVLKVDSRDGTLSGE

Cytochrome P450 2J2 [3] = molecular target: T3, Cytochrome P450 2J2 (Homo sapiens, UniProt P51589); experiment: Drug metabolism assessed as recombinant CYP2J2 (unknown origin)-mediated compound formation treated with AMG 853 at 10 uM after 30 mins by LC-MS/MS analysis; type: ADME; conditions: recombinant enzyme, 0.5 h
T3 sequence (P51589 whole entry): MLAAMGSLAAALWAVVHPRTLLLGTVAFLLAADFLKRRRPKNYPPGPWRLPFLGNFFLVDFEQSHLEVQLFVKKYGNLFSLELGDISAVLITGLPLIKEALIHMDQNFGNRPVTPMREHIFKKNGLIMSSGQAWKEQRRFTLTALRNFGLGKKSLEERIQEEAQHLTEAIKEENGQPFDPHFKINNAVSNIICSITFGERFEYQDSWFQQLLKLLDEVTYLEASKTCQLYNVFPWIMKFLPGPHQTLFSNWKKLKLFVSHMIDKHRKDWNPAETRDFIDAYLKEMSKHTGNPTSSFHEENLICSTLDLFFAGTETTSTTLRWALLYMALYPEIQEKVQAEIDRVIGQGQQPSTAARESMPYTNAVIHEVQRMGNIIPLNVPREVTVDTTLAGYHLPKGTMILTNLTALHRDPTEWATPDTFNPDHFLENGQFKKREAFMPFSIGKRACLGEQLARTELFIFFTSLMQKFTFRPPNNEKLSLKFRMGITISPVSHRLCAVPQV

Cytochrome P450 3A4 [4] = molecular target: T4, Cytochrome P450 3A4 (Homo sapiens, UniProt P08684); experiment: Drug metabolism assessed as recombinant CYP3A4 (unknown origin)-mediated compound formation treated with AMG 853 at 10 uM after 30 mins by LC-MS/MS analysis; type: ADME; conditions: recombinant enzyme, 0.5 h
T4 sequence (P08684 whole entry): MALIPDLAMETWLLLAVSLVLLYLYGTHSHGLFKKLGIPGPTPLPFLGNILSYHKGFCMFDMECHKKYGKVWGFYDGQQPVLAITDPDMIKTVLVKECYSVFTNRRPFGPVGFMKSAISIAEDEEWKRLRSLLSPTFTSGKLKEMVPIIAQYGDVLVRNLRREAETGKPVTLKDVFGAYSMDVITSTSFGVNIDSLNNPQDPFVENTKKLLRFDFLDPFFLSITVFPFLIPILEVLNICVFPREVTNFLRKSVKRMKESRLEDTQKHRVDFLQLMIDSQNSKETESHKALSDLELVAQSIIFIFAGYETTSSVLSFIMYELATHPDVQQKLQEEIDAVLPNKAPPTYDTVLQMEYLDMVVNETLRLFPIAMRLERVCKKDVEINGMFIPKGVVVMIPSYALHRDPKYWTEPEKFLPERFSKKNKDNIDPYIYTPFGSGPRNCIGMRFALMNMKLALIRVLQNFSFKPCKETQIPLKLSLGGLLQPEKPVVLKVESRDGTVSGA

[5] = Drug metabolism in human liver microsomes assessed as CYP3A5*1/*1-mediated compound formation treated with AMG 853 after 15 mins by LC-MS/MS analysis; type: ADME; conditions: 0.25 h
Cytochrome P450 2C8 [6] = molecular target: T5, Cytochrome P450 2C8 (Homo sapiens, UniProt P10632); experiment: Drug metabolism assessed as recombinant CYP2C8 (unknown origin)-mediated compound formation measured per nmol protein treated with AMG 853 after 15 mins by LC-MS/MS analysis; type: ADME; conditions: recombinant enzyme, 0.25 h
T5 sequence (P10632 whole entry): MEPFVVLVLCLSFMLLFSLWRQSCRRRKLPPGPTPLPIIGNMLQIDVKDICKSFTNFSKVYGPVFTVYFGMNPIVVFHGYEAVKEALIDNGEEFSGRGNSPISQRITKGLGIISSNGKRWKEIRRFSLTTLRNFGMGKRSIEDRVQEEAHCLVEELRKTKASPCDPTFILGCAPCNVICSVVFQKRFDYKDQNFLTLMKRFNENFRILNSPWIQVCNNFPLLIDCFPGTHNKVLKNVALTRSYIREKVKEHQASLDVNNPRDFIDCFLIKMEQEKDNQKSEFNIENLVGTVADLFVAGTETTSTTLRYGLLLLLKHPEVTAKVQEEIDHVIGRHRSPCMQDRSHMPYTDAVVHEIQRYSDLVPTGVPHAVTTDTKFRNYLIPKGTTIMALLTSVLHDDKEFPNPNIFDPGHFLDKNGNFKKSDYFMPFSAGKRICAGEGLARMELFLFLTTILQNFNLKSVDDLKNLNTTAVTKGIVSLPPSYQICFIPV

Cytochrome P450 2C8 [7] = molecular target: T5, Cytochrome P450 2C8; experiment: Drug metabolism assessed as recombinant CYP2C8 (unknown origin)-mediated compound formation treated with AMG 853 at 10 uM after 30 mins by LC-MS/MS analysis; type: ADME; conditions: recombinant enzyme, 0.5 h
Cytochrome P450 2C19 = Cytochrome P450 2C19 (Homo sapiens, UniProt P33261); experiment: Drug metabolism assessed as recombinant CYP2C19 (unknown origin)-mediated compound formation treated with AMG 853 at 10 uM after 30 mins by LC-MS/MS analysis; type: ADME; conditions: recombinant enzyme, 0.5 h
Chain of Cytochrome P450 2C19 (P33261 whole entry): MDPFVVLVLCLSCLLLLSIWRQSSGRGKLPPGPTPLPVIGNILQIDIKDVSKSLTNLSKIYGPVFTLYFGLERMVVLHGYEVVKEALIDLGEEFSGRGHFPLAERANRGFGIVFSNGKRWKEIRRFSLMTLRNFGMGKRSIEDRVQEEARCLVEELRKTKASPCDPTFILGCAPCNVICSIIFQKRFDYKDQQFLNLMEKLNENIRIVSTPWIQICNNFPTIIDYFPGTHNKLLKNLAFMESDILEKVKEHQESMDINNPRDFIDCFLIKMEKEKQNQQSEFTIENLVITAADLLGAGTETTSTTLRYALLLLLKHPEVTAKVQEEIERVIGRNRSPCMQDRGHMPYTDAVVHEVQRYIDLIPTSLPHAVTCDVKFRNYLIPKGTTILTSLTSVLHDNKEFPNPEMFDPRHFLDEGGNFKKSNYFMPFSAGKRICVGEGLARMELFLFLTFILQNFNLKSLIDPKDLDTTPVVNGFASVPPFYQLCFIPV

Cytochrome P450 3A5 [8] = molecular target: T2, Cytochrome P450 3A5; experiment: Drug metabolism assessed as recombinant CYP3A5 (unknown origin)-mediated compound formation treated with AMG 853 at 10 uM after 30 mins by LC-MS/MS analysis; type: ADME; conditions: recombinant enzyme, 0.5 h
Cytochrome P450 3A4 [9] = molecular target: T4, Cytochrome P450 3A4; experiment: Drug metabolism assessed as recombinant CYP3A4 (unknown origin)-mediated compound formation measured per nmol protein treated with AMG 853 after 15 mins by LC-MS/MS analysis; type: ADME; conditions: recombinant enzyme, 0.25 h
Cytochrome P450 2J2 [10] = molecular target: T3, Cytochrome P450 2J2; experiment: Drug metabolism assessed as recombinant CYP2J2 (unknown origin)-mediated compound formation measured per nmol protein treated with AMG 853 after 15 mins by LC-MS/MS analysis; type: ADME; conditions: recombinant enzyme, 0.25 h
Cytochrome P450 3A7 [11] = molecular target: T1, Cytochrome P450 3A7; experiment: Drug metabolism assessed as recombinant CYP3A7 (unknown origin)-mediated compound formation measured per nmol protein treated with AMG 853 after 15 mins by LC-MS/MS analysis; type: ADME; conditions: recombinant enzyme, 0.25 h
[12] = Drug metabolism in human liver microsomes assessed as […]-mediated compound formation treated with AMG 853 after 15 mins by LC-MS/MS analysis; type: ADME; conditions: 0.25 h
CYP2B6 = CYP2B6 (Homo sapiens, UniProt P20813); experiment: Induction of CYP2B6 in human hepatocytes using bupropion as substrate at 0.3 to 30 uM treated every 24 hrs for 2 days measured on day 5 by LC-MS/MS analysis relative to control; type: ADME, cell-based, Hepatocyte; conditions: probe bupropion, read-out: FC
Chain of CYP2B6 (P20813 whole entry): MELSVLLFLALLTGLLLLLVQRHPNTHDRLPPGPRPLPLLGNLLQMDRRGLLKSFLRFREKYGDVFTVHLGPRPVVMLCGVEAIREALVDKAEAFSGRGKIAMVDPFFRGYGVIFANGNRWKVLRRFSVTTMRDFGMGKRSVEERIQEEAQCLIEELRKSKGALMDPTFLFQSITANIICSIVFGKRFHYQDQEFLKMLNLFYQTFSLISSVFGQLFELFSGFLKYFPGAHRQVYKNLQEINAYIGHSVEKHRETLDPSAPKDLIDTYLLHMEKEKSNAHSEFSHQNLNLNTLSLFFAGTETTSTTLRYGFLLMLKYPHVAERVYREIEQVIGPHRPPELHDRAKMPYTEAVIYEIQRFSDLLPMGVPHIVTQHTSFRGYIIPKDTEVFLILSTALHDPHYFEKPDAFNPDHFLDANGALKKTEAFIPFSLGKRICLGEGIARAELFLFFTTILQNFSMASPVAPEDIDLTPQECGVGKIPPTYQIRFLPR

Cytochrome P450 2C8 [13] = molecular target: T5, Cytochrome P450 2C8; experiment: Inhibition of recombinant CYP2C8 (unknown origin) treated with AMG 853; type: ADME
Cytochrome P450 2J2 [14] = molecular target: T3, Cytochrome P450 2J2; experiment: Inhibition of recombinant CYP2J2 (unknown origin) treated with AMG 853; type: ADME
CYP1A2 = CYP1A2 (Homo sapiens, UniProt P05177); experiment: Induction of CYP1A2 in human hepatocytes using phenacetin as substrate at 0.3 to 30 uM treated every 24 hrs for 2 days measured on day 5 by LC-MS/MS analysis relative to control; type: ADME, cell-based, Hepatocyte; conditions: probe phenacetin, read-out: FC
Chain of CYP1A2 (P05177 whole entry): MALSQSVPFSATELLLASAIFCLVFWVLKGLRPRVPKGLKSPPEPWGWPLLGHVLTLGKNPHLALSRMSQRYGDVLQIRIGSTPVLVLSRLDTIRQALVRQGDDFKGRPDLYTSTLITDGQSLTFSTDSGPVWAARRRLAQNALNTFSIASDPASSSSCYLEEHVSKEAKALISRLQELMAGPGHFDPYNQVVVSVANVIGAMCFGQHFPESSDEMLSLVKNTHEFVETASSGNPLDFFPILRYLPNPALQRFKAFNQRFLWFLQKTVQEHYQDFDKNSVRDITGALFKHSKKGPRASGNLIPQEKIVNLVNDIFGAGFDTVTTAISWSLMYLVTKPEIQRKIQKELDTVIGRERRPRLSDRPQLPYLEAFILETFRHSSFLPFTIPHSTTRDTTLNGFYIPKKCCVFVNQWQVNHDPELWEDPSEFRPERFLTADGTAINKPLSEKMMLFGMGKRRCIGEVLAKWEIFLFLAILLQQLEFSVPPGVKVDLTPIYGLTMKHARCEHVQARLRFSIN

Compound	Drug metabolism (Cytochrome P450 3A7 [1])	Vmax (Cytochrome P450 3A5 [2]) [nmol/min]	Drug metabolism (Cytochrome P450 2J2 [3])	Drug metabolism (Cytochrome P450 3A4 [4])	Km [5] [µM]	Vmax [5] [nmol/min/mg]	Vmax (Cytochrome P450 2C8 [6]) [nmol/min]	Drug metabolism (Cytochrome P450 2C8 [7])	Drug metabolism (Cytochrome P450 2C19)	Drug metabolism (Cytochrome P450 3A5 [8])	Vmax (Cytochrome P450 3A4 [9]) [nmol/min]	Vmax (Cytochrome P450 2J2 [10]) [nmol/min]	Vmax (Cytochrome P450 3A7 [11]) [nmol/min]	Km [12] [µM]	Vmax [12] [nmol/min/mg]	fold induction at 48 h, up to 30 µM (CYP2B6)	Ki (Cytochrome P450 2C8 [13]) [µM]	Ki (Cytochrome P450 2J2 [14]) [µM]	fold induction at 48 h, up to 30 µM (CYP1A2)
CC(C)(C)NC(=O)c1ccc(Oc2cc(F)c(CC(=O)O)cc2Cl)c(NS(=O)(=O)c2ccc(C3(O)CC3)cc2Cl)c1	metabolite_detected	1.13	metabolite_detected	metabolite_detected	38.5	0.317	0.25	metabolite_detected	metabolite_detected	metabolite_detected	1.41	0.299	0.286	35.2	0.296				
CCC1(c2ccccc2)C(=O)NC(=O)NC1=O [PHENOBARBITAL]																22.1			
CC(C)(CO)NC(=O)c1ccc(Oc2cc(F)c(CC(=O)O)cc2Cl)c(NS(=O)(=O)c2ccc(C3CC3)cc2Cl)c1	metabolite_detected	0.221	metabolite_detected	metabolite_detected	2.75	0.044	0.031	metabolite_detected		metabolite_detected	0.96	0.584	0.26	4.11	0.023		31.7	240	
COc1ccc2[nH]c([S+]([O-])Cc3ncc(C)c(OC)c3C)nc2c1 (stereo not drawn) [OMEPRAZOLE]																			47.4
